The results in this text go back to US20210363563A1, “MEDIUM FOR THE SPECIFIC DETECTION OF RESISTANT MICROORGANISMS” (BIOMERIEUX, priority 2005, published 2021).

For one assay, the system named is ESBL-positive strains. The experiment in a line: Antibiotic concentration range on CPS ID 3 chromogenic agar: growth of ESBL-positive strains. The assay is classed as cell-based. The settings on record: CPS ID 3 agar, 37° C., aerobic atmosphere. An excerpt: (§1) In the context of the manipulations carried out, for evaluating the activity of the antibiotics active on gram-negative bacilli, various species of enterobacteria (Escherichia coli, Enterobacter aerogenes, Klebsiella pneumoniae, Serratia marcescens, Proteus mirabilis) and of nonfermenting gram-negative bacilli (Pseudomonas aeruginosa), capable of producing ESBLs, were used. ESBL-positive strains, high level cephalosporinase-producing strains (HL Case) and wild-type strains are compared in the trials.
(§2) The medium used was a CPS ID3 medium (reference 43541) also comprising at least one antibiotic and at least one resistance mechanism inhibitor.
(§3) Osmosed water is added and the whole is homogenized and melted in a waterbath at 100° C. The base medium is dispensed into flasks, the number of which corresponds to the total number of media to be tested during the process. The flasks are then autoclaved for 15 min at 121° C. The media are brought back to and kept molten at 55±3° C. in a waterbath, in order to sterilely add the thermolabile additives (sterilized beforehand by filtration through 0.22 μm). The media are then poured into biplates 90 mm in diameter (i.e. approximately 9.5 ml/half-plate), and left on a flat surface so that they can set. The surface of the agars is then dried under a laminar flow hood for 30 min.
(§4) An inoculum of 0.5 McF is prepared, in physiological saline, from 24-hour precultures at 36° C.±2° C. in an aerobic atmosphere on TSA medium, and then 1 μl of this suspension is transferred into 5 ml of physiological saline. In order to obtain a sufficient number of isolated colonies, a range of inocula made it possible to determine that the optimal amount of bacteria to be inoculated was from 10^3 to 10^4 CFU/ml. The inoculation is carried out directly on the two half-agars using a sterile swab. The cultures are then incubated at 37° C. in an aerobic atmosphere.
(§5) 4. Reading of media: the readings are carried out at 18 hours (±30 min), 24 h (±1h) and 48 h (±4 h). The density and the size of the colonies, and the appearance, the color and the coloration intensities of the mass and of the isolated colonies were observed, according to the following reading scales 1 to 3: 0: no growth; 0.1: trace of growth; 0.25: colonies of diameter<0.5 mm; 0.5: colonies of 0.5 mm in diameter; 0.75: 0.5 mm<diameter<1 mm; 1: colonies of 1 mm in diameter; 1.25: 1 mm<diameter<1.5 mm; 1.5: colonies 1.5 mm in diameter; 2: colonies 2 mm in diameter; 3: colonies of diameter>2 mm.
(§6) The 5 antibiotics recommended by the NCCLS (National Committee for Clinical Laboratory Standards) were tested. For each product tested, a range was prepared in order to determine the concentrations that make it possible to inhibit the wild-type strains of the enterobacteria tested, without affecting the growth of the ESBL-positive strains or the HL Case-positive strains.
(§7) The low value corresponds to the minimum concentration of the antibiotic required to inhibit the wild-type strains of the enterobacteria tested. The high value corresponds to the maximum concentration of the antibiotic that can be used without affecting the growth of the ESBL-positive strains tested.

Assay [1] deals with wild-type strains of the enterobacteria tested. The experiment in a line: Antibiotic concentration range on CPS ID 3 chromogenic agar: inhibition of wild-type strains. The assay is classed as cell-based. The settings on record: CPS ID 3 agar, 37° C., aerobic atmosphere.
Text: as §1, §2, §3, §4, §5, §6, §7

The test system of assay [2] is wild-type strains of P. aeruginosa. The assay is described as follows: Antibiotic concentration range on CPS ID 3: complete inhibition of wild-type P. aeruginosa. The assay is classed as cell-based, Pseudomonas aeruginosa. The settings on record: CPS ID 3 agar.
Text: as §1
Osmosed water is added and the whole is homogenized and melted in a waterbath at 100° C. The base medium is dispensed into flasks, the number of which corresponds to the total number of media to be tested during the process. The flasks are then autoclaved for 15 min at 121° C. […]
as §5, with “mm. […]” for “mm.”

For assay [3], the system named is ESBL-positive enterobacterial strains. The format is cell-based, enterobacteria. The settings on record: in the presence of cefotaxime.
Description: 4. Reading of media: the readings are carried out at 18 hours (±30 min), 24 h (±1h) and 48 h (±4 h). The density and the size of the colonies, and the appearance, the color and the coloration intensities of the mass and of the isolated colonies were observed, according to the following reading scales 1 to 3: 0: no growth; 0.1: trace of growth; 0.25: colonies of diameter<0.5 mm; 0.5: colonies of 0.5 mm in diameter; 0.75: 0.5 mm<diameter<1 mm; 1: colonies of 1 mm in diameter; 1.25: 1 mm<diameter<1.5 mm; 1.5: colonies 1.5 mm in diameter; 2: colonies 2 mm in diameter; 3: colonies of diameter>2 mm. […]
For assay [4], the system named is E. casseliflavus and E. gallinarum strains (natural resistances). The experiment in a line: Example 4: Columbia chromogenic media with vancomycin, naturally resistant enterococci. The assay is classed as cell-based, Enterococcus casseliflavus, Enterococcus gallinarum. The settings on record: vancomycin 8 mg/l. The protocol: In the context of the manipulations carried out, for evaluating the activity of antibiotics active on enterococci, various species of Enterococcus (Enterococccus faecalis, Enterococcus faecium, Enterococcus casseliflavus, Enterococcus gallinarum,) were used. In the assays, strains resistant to glycopeptides (VRE) and wild-type strains are compared.
The media used were a Columbia medium (51026), also comprising: • 5-bromo-4-chloro-3-indolyl-N-methyl-α-D-glucopyranoside (GreenA-α-Glu) at 150 mg/l, • 6-chloro-3-indolyl-β-glucopyranoside (Rose-b-Glu [Pink-b-Glu]) at 200 mg/l, or: • 5-bromo-4-chloro-3-indolyl-N-methyl-α-D-glucopyranoside (GreenA-α-Glu) at 150 mg/l, • alizarine-β-galactopyranoside at 50 mg/l • and vancomycin at 8 mg/l, • an amphotericin B at 4 mg/l, • and colistine at 2 mg/l, • and aztreonam at 32 mg/l.
Osmosed water is added and the whole is homogenized and melted in a waterbath at 100° C. The two basic media are dispensed into flasks. The flasks are then autoclaved for 15 min at 121° C. The media are brought back to and kept molten at 55±3° C. in a waterbath, in order to sterilely add the thermolabile additives (sterilized beforehand by filtration through 0.22 μm). The media are then poured into plates 90 mm in diameter and left on a flat surface so that they can set. The surface of the agars is then dried under a laminar flow hood for 30 min. […]

`C[C@H]1[C@H](NC(=O)/C(=N\OC(C)(C)C(=O)O)c2csc(N)n2)C(=O)N1S(=O)(=O)O` [Aztreonam, aztreonam]: the “High value: maximum concentration of the antibiotic that can be used without affecting the growth of the ESBL-positive strains tested” value in the assay with ESBL-positive strains stood at 1.5 mg/L. Besides, the “Low value: minimum concentration of the antibiotic required to inhibit the wild-type strains of the enterobacteria tested” value in assay [1] was found to be 1 mg/L.

`CO/N=C(\C(=O)N[C@@H]1C(=O)N2C(C(=O)O)=C(COC(C)=O)CS[C@H]12)c1csc(N)n1` [Cefotaxime, cefotaxime]: in the assay with ESBL-positive strains, the “High value: maximum concentration of the antibiotic that can be used without affecting the growth of the ESBL-positive strains tested” value was 2 mg/L. Besides, in assay [1], the “Low value: minimum concentration of the antibiotic required to inhibit the wild-type strains of the enterobacteria tested” value worked out at 1 mg/L.

Regarding `COCC1=C(C(=O)O)N2C(=O)[C@@H](NC(=O)/C(=N\OC)c3csc(N)n3)[C@H]2SC1` [Cefpodoxime, cefpodoxime], the “High value: maximum concentration of the antibiotic that can be used without affecting the growth of the ESBL-positive strains tested” value with ESBL-positive strains was 10 mg/L. Moreover, in assay [1], the “Low value: minimum concentration of the antibiotic required to inhibit the wild-type strains of the enterobacteria tested” value was 2 mg/L.

For `CC(C)(O/N=C(\C(=O)N[C@@H]1C(=O)N2C(C(=O)[O-])=C(C[n+]3ccccc3)CS[C@H]12)c1csc(N)n1)C(=O)O` [Ceftazidime, ceftazidime], the “High value: maximum concentration of the antibiotic that can be used without affecting the growth of the ESBL-positive strains tested” value with ESBL-positive strains was 2.5 mg/L. Also, in assay [1], the “Low value: minimum concentration of the antibiotic required to inhibit the wild-type strains of the enterobacteria tested” value came out at 2 mg/L. For the same compound, the “minimum concentration for complete inhibition of wild-type strains of P. aeruginosa (limiting value)” value in assay [2] was 1.5 mg/L.

Consider `CO/N=C(\C(=O)N[C@@H]1C(=O)N2C(C(=O)O)=C(CSc3nc(=O)c(=O)[nH]n3C)CS[C@H]12)c1csc(N)n1` [Ceftriaxone, ceftriaxone], for which the “High value: maximum concentration of the antibiotic that can be used without affecting the growth of the ESBL-positive strains tested” value in the assay on ESBL-positive strains stood at 2.5 mg/L. Besides, in assay [1], the “Low value: minimum concentration of the antibiotic required to inhibit the wild-type strains of the enterobacteria tested” value was determined as 1 mg/L.

In the case of `O=C(O)[C@H]1/C(=C/CO)O[C@@H]2CC(=O)N21` [clavulanic acid], in assay [3], the “relative effectiveness among the β-lactamase inhibitors (BLI) tested” value was “most effective BLI”.

As to `CN[C@H](CC(C)C)C(=O)N[C@H]1C(=O)N[C@@H](CC(N)=O)C(=O)N[C@H]2C(=O)N[C@H]3C(=O)N[C@H](C(=O)N[C@H](C(=O)O)c4cc(O)cc(O)c4-c4cc3ccc4O)[C@H](O)c3ccc(c(Cl)c3)Oc3cc2cc(c3O[C@@H]2O[C@H](CO)[C@@H](O)[C@H](O)[C@H]2O[C@H]2C[C@](C)(N)[C@H](O)[C@H](C)O2)Oc2ccc(cc2Cl)[C@H]1O` [vancomycin], the “effect on E. casseliflavus and E. gallinarum strains” value is “inhibited” in assay [4] (medium with α-glucosidase and β-galactosidase substrates); “inhibited” in assay [4] (medium with α-glucosidase and β-glucosidase substrates).
